According to ChEMBL document CHEMBL1137380, “Conformationally restricted dipeptide amides as potent and selective neuronal nitric oxide synthase inhibitors” (J Med Chem, 2006):

Legend:
Nitric oxide synthase 1 = Nitric oxide synthase 1 (Rattus norvegicus, UniProt P29476); assay: Inhibition of rat nNOS
[1] = Selectivity for rat nNOS over bovine eNOS
[2] = target: T1, Nitric oxide synthase, inducible (Mus musculus, UniProt P29477); assay: Inhibition of murine macrophage iNOS
T1 sequence (P29477 whole entry): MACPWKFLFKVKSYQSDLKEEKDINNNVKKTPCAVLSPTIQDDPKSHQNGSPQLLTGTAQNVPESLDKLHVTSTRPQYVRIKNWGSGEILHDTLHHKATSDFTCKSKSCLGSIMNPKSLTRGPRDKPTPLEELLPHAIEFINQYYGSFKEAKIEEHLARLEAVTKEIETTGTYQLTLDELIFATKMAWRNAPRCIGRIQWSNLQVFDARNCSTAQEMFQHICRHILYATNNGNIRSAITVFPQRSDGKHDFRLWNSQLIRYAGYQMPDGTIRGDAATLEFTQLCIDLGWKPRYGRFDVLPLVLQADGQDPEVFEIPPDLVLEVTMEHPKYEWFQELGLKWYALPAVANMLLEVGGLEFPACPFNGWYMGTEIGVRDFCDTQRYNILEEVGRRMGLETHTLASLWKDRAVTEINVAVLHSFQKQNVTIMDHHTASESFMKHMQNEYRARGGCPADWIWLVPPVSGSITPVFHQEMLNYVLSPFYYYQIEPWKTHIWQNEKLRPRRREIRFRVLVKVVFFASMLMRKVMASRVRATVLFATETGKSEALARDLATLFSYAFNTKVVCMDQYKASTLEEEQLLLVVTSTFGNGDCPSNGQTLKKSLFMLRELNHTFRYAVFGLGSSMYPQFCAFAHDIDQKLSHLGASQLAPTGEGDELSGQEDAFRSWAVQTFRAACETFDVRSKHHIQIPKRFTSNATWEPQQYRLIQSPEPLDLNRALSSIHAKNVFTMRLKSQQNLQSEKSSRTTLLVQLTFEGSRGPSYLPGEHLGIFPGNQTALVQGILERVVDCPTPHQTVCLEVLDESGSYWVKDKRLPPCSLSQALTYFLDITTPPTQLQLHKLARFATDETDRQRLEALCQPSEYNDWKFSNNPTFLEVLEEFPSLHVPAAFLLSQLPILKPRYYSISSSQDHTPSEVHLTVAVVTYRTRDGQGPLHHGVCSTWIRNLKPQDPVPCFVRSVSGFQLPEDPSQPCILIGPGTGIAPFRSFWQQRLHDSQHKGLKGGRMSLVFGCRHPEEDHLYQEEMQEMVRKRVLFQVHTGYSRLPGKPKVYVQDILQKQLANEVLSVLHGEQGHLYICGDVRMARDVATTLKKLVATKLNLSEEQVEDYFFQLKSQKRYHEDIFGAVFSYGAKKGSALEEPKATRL

Nitric oxide synthase 3 = target: T2, Nitric oxide synthase 3 (Bos taurus, UniProt P29473); assay: Inhibition of bovine eNOS
T2 sequence (P29473 whole entry): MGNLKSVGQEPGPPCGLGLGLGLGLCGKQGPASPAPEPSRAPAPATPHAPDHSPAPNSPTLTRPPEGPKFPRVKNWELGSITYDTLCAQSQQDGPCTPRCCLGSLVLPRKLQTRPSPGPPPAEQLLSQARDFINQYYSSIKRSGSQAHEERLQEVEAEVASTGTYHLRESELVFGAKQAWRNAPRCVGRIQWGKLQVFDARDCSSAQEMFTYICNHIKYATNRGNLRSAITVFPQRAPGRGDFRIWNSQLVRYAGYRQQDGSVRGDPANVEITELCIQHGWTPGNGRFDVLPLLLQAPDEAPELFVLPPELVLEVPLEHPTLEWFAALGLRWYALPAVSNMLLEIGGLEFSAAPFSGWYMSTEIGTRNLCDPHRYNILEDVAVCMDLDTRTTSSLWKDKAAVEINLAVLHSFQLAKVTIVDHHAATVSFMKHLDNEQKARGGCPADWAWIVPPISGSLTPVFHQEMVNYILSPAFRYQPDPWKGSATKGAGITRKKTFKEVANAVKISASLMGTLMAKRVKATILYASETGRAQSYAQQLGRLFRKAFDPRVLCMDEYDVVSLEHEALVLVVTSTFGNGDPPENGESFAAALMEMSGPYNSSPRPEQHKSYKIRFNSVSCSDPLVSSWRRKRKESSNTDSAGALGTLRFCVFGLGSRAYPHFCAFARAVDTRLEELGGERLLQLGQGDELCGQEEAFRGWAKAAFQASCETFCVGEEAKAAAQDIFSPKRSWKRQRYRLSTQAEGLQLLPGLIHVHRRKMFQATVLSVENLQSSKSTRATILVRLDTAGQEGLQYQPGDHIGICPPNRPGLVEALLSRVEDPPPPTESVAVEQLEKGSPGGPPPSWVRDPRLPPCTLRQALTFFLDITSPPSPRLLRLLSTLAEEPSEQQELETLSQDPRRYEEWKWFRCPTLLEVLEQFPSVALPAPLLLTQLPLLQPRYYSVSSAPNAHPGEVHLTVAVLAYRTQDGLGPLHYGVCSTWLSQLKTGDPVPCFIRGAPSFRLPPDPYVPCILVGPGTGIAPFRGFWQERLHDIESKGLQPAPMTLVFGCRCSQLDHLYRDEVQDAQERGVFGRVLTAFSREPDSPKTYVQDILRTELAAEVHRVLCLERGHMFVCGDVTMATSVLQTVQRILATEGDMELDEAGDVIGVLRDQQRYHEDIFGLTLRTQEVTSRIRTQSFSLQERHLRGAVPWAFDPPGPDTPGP

[3] = Selectivity for rat nNOS over murine iNOS

Nitric oxide synthase 1, sequence (P29476 whole entry): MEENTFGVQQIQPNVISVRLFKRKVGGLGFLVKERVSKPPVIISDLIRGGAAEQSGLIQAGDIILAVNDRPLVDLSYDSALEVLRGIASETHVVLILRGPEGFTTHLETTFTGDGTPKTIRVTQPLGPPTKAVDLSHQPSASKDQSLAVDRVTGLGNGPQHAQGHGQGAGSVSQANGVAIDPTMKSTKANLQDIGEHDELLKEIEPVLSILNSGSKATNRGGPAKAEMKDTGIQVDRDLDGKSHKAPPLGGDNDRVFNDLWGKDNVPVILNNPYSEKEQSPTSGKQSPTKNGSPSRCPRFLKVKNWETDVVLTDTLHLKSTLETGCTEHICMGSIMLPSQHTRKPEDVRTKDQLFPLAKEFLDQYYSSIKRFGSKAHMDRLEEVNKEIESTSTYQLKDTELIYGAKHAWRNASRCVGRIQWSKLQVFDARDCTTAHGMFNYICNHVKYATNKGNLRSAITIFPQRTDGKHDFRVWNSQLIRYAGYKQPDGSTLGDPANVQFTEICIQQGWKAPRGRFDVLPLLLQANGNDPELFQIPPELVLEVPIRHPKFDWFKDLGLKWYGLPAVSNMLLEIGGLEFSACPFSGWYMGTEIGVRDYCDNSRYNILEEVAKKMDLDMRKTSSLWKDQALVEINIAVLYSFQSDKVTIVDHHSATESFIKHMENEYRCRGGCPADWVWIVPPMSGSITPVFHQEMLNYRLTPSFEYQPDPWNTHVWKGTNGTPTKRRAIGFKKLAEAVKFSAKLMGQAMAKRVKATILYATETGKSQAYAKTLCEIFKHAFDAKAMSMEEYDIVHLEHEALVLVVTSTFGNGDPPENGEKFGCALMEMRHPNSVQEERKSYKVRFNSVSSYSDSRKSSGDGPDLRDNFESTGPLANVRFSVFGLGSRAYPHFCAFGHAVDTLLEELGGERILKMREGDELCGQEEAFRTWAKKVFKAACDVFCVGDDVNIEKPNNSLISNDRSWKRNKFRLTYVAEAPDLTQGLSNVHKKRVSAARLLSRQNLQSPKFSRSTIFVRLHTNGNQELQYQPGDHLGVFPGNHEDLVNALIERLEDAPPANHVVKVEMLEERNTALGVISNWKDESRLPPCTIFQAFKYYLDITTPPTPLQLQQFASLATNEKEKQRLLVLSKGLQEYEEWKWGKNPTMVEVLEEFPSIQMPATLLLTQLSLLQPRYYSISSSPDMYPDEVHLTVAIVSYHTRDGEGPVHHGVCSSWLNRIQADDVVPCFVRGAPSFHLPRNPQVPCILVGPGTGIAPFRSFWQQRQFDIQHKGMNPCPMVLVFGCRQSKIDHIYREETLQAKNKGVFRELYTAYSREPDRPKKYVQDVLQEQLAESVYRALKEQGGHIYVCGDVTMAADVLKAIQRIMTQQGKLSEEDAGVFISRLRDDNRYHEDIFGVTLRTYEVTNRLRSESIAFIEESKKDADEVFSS

| SMILES | IC50 (Nitric oxide synthase 1) [µM] | Ki (Nitric oxide synthase 1) [µM] | Ratio Ki [1] | IC50 [2] [µM] | Ki [2] [µM] | IC50 (Nitric oxide synthase 3) [µM] | Ki (Nitric oxide synthase 3) [µM] | Ratio Ki [3] |
| --- | --- | --- | --- | --- | --- | --- | --- | --- |
| CN1C[C@H](NC(=O)[C@@H](N)CCC/N=C(\N)N[N+](=O)[O-])C[C@H]1C(N)=O | 73.5 | 8.46 | 29 | 83.5 | 37.9 | 1690 | 246 | 4.5 |
| NC(=O)[C@@H]1C[C@@H](NC(=O)[C@@H](N)CCC/N=C(\N)N[N+](=O)[O-])CN1Cc1ccccc1 | 2.85 | 0.328 | 485 | 87.5 | 39.7 | 1100 | 159 | 121 |
| NC(=O)[C@H]1NCC[C@@H]1NC(=O)[C@@H](N)CCC/N=C(\N)N[N+](=O)[O-] |  |  |  | 12.7 | 5.76 | 1380 | 200 |  |
